We go through seven molecules from patent publication US20100015128A1, “GRP78 as a Predictor of Responsiveness to Therapeutic Agents” (UNIVERSITY OF SOUTHERN CALIFORNIA, priority 2006, published 2010).

d = 2'-deoxy (DNA); r = 2'-OH (RNA)

One series addresses Flag-tagged BIK-b5TM (UniProt Q13323). The series is described as follows: cell-based or functional assay.
A further series concerns PARP. The series is described as follows: PARP cleavage by Western blot in estrogen-starved cells. Format: cell-based, human. The note with it: MCF-7/BUS cells, estrogen starvation; for PARP cleavage: vs control siRNA. As to the method: In FIG. 8A, cell lysates from MCF-7/BUS cells transfected with siGrp78 oligomers or control siRNA (siCtrl) for 24 hours and subsequently cultured in regular or estrogen-free medium (ES) for 24 hours were subjected to SDS-PAGE and Western blotting to probe for levels of GRP78, GRP94 and β-actin. In FIG. 8B, MCF-7/BUS cells were cultured either in regular or in estrogen-free (ES) medium for 24 hours after transfection of siGrp78 or siCtrl as indicated. The percent of apoptotic cells was assessed by mitochondrial membrane potential staining. The standard errors are indicated. In FIG. 8C, MCF-7/BUS cells were transfected with control siRNA, siGrp78, or siBik, alone or in combination as indicated for 24 hours and then cultured in ES medium for 24 hours. The total amount of siRNA in each condition was adjusted to be the same by addition of siCtrl. Cell lysates were collected and subjected to SDS-PAGE and probed for levels of GRP78, BIK and β-actin by Western blotting. In FIG. 8D, cell lysates from FIG. 8C were subjected to SDS-PAGE and Western blotted with anti-PARP antibody. The Western signal of full-length PARP and apoptosis-signature fragment were quantitated by Fluor-S™ MultiImager (Bio-Rad, Hercules, Calif.). The relative PARP cleavages are shown with the PARP cleavage in cells transfected with control siRNA set as 1. Columns in FIGS. 8B and 8D represent the mean from three or two experiments, respectively. Standard error: * p<0.05, ** p<0.01.
Cell lines and culture conditions. The estrogen-dependent cell line MCF-7/BUS was provided by A. M. Soto (Tufts University, Medford, Mass.) and has been described (Soto et al., Environ. Health Perspect. 103:113-22 (1995)). The human embryonic kidney 293T cells and MCF-7/BUS cells were maintained in DMEM supplemented with 10% fetal bovine serum. […]
Western blots and quantitation. […] The Western blots were quantitated by Fluor-S® MultiImager (Bio-Rad, Hercules, Calif.) according to the manufacturer's instructions. All quantitations were normalized against h-actin.
On the technique in general: In western blotting, separated proteins are transferred to a membrane and probed.

The next series deals with MCF-7/BUS cells. Description: Mitochondrial membrane potential staining (apoptosis). Format: cell-based, human. The source says:
(§1) Cell lines and culture conditions. The estrogen-dependent cell line MCF-7/BUS was provided by A. M. Soto (Tufts University, Medford, Mass.) and has been described (Soto et al., Environ. Health Perspect. 103:113-22 (1995)). The human embryonic kidney 293T cells and MCF-7/BUS cells were maintained in DMEM supplemented with 10% fetal bovine serum. Estrogen starvation of MCF-7/BUS cells was done as described (Hur et al., PNAS 101:2351-6 (2004)). Briefly, the cells were washed thrice with phenol red-free DMEM and incubated in washing medium at 37° C. for 60 minutes. The MCF-7/BUS cells were then cultured in phenol red-free DMEM supplemented with 5% charcoal/dextran-stripped fetal bovine serum for 24 to 72 hours as indicated. For etoposide treatment, the cells were incubated with 50 μmol/L etoposide for 6 hours and cultured for another 24 hours before harvest.
For construction of the adenovirus expression vectors, either GFP or a His-tagged full-length hamster Grp78 cDNA was subcloned into an adenoviral vector and its expression was driven by the cytomegalovirus promoter. […] For mitochondrial membrane potential staining, because GFP interferes with the green fluorescence of this assay, the adenovirus empty vector was used as the negative control. […]
Cell death and apoptotic assays. […] The cell cultures were then washed with PBS and examined under a fluorescence microscope. […]

The test system of another series is GRP78. Description: siRNA knockdown in MCF-7/BUS cells, Western blot for Grp78. In kind it is cell-based, human. The note with it: transient transfection, vs control siRNA. The source says: (§2) Western blots and quantitation. The Western blots were done as described (Lee, Methods 35:373-81 (2005)). The primary antibodies were goat anti-BIK (N-19, Santa Cruz Biotechnology, Santa Cruz, Calif.), rat anti-Grp78 (76-E6, Santa Cruz Biotechnology), rat anti-GRP94, rabbit anti-calnexin, rabbit anti-calreticulin (Stressgen, Ann Arbor, Mich.), mouse anti-Flag M2, mouse anti-poly(ADP-ribose) polymerase (PARP; F-2, Santa Cruz Biotechnology, Santa Cruz, Calif.), and mouse anti-h-actin (Sigma-Aldrich, St. Louis, Mo.). Anti-h-actin was diluted at 1:2,000; anti-BIK at 1:500; and other antibodies at 1:1,000. Respective horseradish peroxidase-conjugated secondary antibodies (Santa Cruz Biotechnology, Santa Cruz, Calif.) at 1:1,000 dilution were used. The Western blots were quantitated by Fluor-S® MultiImager (Bio-Rad, Hercules, Calif.) according to the manufacturer's instructions. All quantitations were normalized against h-actin.
(§3) Small interfering RNA. The siRNA against Grp78 is 5′-gagcgcauugauacuagadTdT-3′ (SEQ ID NO:1) as described (Tsutsumi et al., Oncogene 25:1018-29 (2006)). The siRNA against Bik is 5′-[…]-3′ (SEQ ID NO:2) (Hur et al., PNAS 101:2351-6 (2004)). The control siRNA is Silencer Negative Control #3 siRNA (Ambion, Foster City, Calif.) composed of a 19-bp scrambled sequence without significant homology to any known gene sequences from mouse, rat, or human. […]

In series [1] the test system is GRP94. Description: siRNA knockdown in MCF-7/BUS cells, Western blot for GRP94. In kind it is cell-based, human. Conditions: transient transfection.
Excerpt: as §2, §3

Series [2] deals with BIK. Description: BIK protein induction under stress conditions (Western blot). Format: cell-based, human.
Excerpt: as §1, §2

The target of a further series is endogenous BIK (human) (UniProt Q13323). The series is described as follows: cell-based or functional assay.
The subject of series [3] is BIK. Description: siRNA knockdown in MCF-7/BUS cells, Western blot for BIK. In kind it is cell-based, human. Conditions: estrogen starvation, vs control siRNA.
Excerpt: as §2, §3

For a further series, the target named is T1, GST protein (UniProt P08515 1-218 = GST).
T1 construct: Negative control in the pull-down assays; also called Glutathione S-transferase
Description: GST pull-down from 293T total cell extract, Western blot. As to the method:
(§4) FIGS. 5A to 5D show selective association of endogenous BIK with GRP78. In FIG. 5A, 293T cells were either non-treated or treated with 50 μM etoposide (Etop) for 6 hours and were harvested 24 hours later. MCF-7/BUS cells were cultured either in regular DMEM or in estrogen-free DMEM for 48 hours. Western blots of total protein lysates from these cells were performed with antibodies against BIK and β-actin. In FIG. 5B, cell lysates prepared from control and Etop-treated 293T cells were immunoprecipitated with anti-BIK or normal IgG The immunoprecipitates were applied in parallel with input lysates to SDS-PAGE and Western blotted with antibodies against GRP78, GRP94, calnexin, calreticulin and BIK. […] In FIG. 5D, lysates of 293T cells were incubated with GST-GRP78, GST-BIK, or GST linked beads. The bound proteins were resolved by SDS-PAGE and probed for GRP78 or BIK by Western blotting.
Glutathione S-transferase pull-down assays. Glutathione S-transferase (GST)-Grp78 and GST-BIK were constructed by subcloning full-length hamster Grp78 cDNA and human BIK into the BamH1/XhoI and BamH1/Sal1 sites of pGEX 4T1, respectively (Pharmacia Biotech, Piscataway, N.J.). Conditions for the GST pull-down assays have been described (Wu and Lee, Nucleic Acids Res. 26:4837-45 (1998)) with the following modifications. […]

In the next series the target is T2, calreticulin (human, UniProt P27797 18-417).
T2 sequence (looked up): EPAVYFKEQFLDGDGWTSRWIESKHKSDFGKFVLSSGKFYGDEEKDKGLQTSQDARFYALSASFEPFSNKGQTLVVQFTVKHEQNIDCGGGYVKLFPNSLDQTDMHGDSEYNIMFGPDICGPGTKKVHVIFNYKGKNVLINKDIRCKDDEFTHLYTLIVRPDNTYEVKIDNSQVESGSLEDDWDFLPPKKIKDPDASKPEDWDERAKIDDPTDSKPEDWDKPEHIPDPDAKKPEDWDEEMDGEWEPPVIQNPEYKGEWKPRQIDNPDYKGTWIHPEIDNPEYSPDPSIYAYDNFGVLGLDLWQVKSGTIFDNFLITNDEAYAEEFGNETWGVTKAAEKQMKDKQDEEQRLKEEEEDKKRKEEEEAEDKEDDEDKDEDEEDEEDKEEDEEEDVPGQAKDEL
Description: co-immunoprecipitation with anti-BIK from 293T lysate, Western blot. The procedure: as §4
(§5) Communoprecipitation assays. The coimmunoprecipitation assays were done as described (Reddy et al., J. Biol. Chem. 278:20915-24 (2003)). Briefly, 500 μg of total protein extract from each sample were pretreated with protein G-Sepharose beads (Upstate, Chicago, Ill.), followed by incubation with 5 Ag of goat anti-BIK antibody (N-19, Santa Cruz Biotechnology, Santa Cruz, Calif.) or mouse anti-Flag M2 antibody (Sigma-Aldrich, St. Louis, Mo.). For negative controls, the respective goat or mouse immunoglobulin G (IgG; Santa Cruz Biotechnology, Santa Cruz, Calif.) was used.

For series [4], the target named is GRP94 (human, UniProt P14625 22-803). The series is described as above. As to the method: as §4, §5
The target of a further series is T3, calnexin (human, UniProt P27824 21-592).
T3 sequence (looked up): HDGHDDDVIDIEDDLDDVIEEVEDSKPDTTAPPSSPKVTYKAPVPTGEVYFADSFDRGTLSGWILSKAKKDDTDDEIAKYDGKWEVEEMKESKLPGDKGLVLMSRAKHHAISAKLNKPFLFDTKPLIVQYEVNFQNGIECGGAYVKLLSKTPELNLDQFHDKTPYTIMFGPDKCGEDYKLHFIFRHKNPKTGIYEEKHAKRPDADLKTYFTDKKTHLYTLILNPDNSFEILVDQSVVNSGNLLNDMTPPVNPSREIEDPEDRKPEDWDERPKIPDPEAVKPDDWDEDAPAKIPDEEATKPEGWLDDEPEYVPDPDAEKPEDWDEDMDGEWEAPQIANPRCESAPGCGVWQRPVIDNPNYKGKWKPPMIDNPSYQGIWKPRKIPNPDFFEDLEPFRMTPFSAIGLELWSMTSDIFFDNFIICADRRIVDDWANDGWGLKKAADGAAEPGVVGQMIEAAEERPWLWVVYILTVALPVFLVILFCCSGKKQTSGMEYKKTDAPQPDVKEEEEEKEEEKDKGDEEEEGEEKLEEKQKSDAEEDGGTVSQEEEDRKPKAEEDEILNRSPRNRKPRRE
The description is as above. As to the method:
as §4, §5

GRP94 (human, UniProt P14625 22-803), sequence (P14625 22-803 limits assumed): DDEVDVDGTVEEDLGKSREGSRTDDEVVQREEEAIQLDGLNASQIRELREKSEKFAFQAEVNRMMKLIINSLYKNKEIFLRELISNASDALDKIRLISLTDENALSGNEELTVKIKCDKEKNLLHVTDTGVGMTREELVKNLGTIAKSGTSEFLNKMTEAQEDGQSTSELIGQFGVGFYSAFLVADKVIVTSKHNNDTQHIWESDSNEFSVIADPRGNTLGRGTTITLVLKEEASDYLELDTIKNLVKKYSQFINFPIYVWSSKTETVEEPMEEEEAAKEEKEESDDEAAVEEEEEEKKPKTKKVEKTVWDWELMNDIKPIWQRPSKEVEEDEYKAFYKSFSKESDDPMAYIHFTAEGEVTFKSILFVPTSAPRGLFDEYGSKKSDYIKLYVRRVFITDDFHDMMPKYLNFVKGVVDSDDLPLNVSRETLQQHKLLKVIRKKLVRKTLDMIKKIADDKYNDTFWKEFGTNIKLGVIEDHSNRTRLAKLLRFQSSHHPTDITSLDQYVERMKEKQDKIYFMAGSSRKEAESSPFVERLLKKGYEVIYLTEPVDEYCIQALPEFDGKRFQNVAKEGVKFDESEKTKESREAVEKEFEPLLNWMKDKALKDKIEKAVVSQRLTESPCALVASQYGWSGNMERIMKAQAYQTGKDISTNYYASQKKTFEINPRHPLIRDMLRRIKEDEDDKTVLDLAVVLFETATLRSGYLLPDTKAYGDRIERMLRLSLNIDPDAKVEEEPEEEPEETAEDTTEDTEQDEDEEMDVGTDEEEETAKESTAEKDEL
T1 sequence (P08515 whole entry): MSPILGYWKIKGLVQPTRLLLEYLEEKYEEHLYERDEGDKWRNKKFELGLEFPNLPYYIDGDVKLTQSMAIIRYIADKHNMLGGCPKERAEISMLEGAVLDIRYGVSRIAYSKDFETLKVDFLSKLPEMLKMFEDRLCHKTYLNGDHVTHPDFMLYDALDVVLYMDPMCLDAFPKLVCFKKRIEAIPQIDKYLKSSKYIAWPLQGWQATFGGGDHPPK

For His-tagged Grp78, in the series with Flag-tagged BIK-b5TM, the fold decrease in apoptosis (mitochondrial membrane potential staining) in transfected 293T cells amounted to 3 fold.

Take “siRNA against Grp78: siRNA 5′-gagcgcauugauacuagadTdT-3′ (SEQ ID NO:1) (guide GAGCGCAUUGAUACUAGATT; sugars from the 5' end r18 d2, backbone not given here)”: the PARP cleavage entry in the series with PARP is on record as “increased”. In addition, in the series with MCF-7/BUS cells (MCF-7/BUS cells in normal culture medium), the “effect on mitochondrial membrane potential” value is “little effect”. For the same molecule, the apoptosis result in the series with MCF-7/BUS cells (MCF-7/BUS cells, estrogen starvation 24 hours, vs control siRNA) was “marked increase”. The “level of Grp78 protein” value in the series with GRP78 is “substantially reduced”. Besides, the “expression of GRP94” value in the series with GRP94 [1] was “no effect”.

For the molecule tunicamycin, the “induction of BIK by ER stress inducers” value in the series on BIK [2] (human cells) is on record as “do not induce”.

In the series with endogenous BIK (human), “His-tagged full-length hamster Grp78 (Ad-Grp78) (from UniProt P07823 19-654)” gave a decrease in BAX activation by estrogen starvation (FACS with BAX conformation specific antibody) in MCF-7/BUS cells of 48%.

“siRNA against Bik: siRNA 5′-aagaccccucuccagagacau-3′ (SEQ ID NO:2) (AAGACCCCUCUCCAGAGACAU; RNA, backbone not given here)”: the “enhanced PARP cleavage mediated by knockdown of Grp78” value in the series with PARP (BIK knockdown combined with Grp78 knockdown) was “substantially reduced”. Further, in the series with PARP, the PARP cleavage result was “decreased”. Moreover, in the series on BIK [3], the “expression of BIK protein” value is on record as “substantially reduced”.

In the case of `COc1cc([C@@H]2c3cc4c(cc3[C@@H](O[C@@H]3O[C@@H]5CO[C@@H](C)O[C@H]5[C@H](O)[C@H]3O)[C@H]3COC(=O)[C@H]23)OCO4)cc(OC)c1O` [etoposide], in the series on BIK [2] (293T cells, 50 μmol/L etoposide 6 hours, harvested 24 hours later), the “level of BIK protein” value was “substantially elevated”.

B1: endogenous BIK (other, human, UniProt Q13323 1-160, looked up)
chain: MSEVRPLSRDILMETLLYEQLLEPPTMEVLGMTDSEEDLDPMEDFDSLECMEGSDALALRLACIGDEMDVSLRAPRLAQLSEVAMHSLGLAFIYDQTEDIRDVLRSFMDGFTTLKENIMRFWRSPNPGSWVSCEQVLLALLLLLALLLPLLSGGLHLLLK
notes: Endogenous protein from total cell extract of the human cell line 293T, untreated or etoposide-treated; also called BIK protein
Take B1: the binding result with GST protein, in the series with calreticulin, with GRP94 [4] and with calnexin was “no binding” each time.
